Molecules are shown by their SMILES. pEC50: −log10 of the molar value.

In one experiment the target is T1, human GLP-1R receptor (Homo sapiens, UniProt P43220, L260F).
T1 construct: expressed in transfected cells; host or cells: CHO-K1 (ATCC CCL-61)
In words: CHOK1 GLP-1R cAMP Assay (HTRF). It counts as cell-based. The conditions noted are these: CHO-K1 cells stably expressing human GLP-1R (Leu260Phe variant), 20 min at rt. Here is the method: A cell line stably expressing the human GLP-1R receptor (NM_002062.5, including the naturally-occurring variant Leu260Phe) in a CHO-K1 (ATCC® CCL-61™) was used for assay.
GLP-1 receptor mediated agonist activity was determined in a cell-based assay measuring cyclic adenosine monophosphate (cAMP) levels in cells using Homogeneous Time-Resolved Fluorescence (HTRF) cAMP detection kit (CisBio catalog #62AM4PEC, cAMP Gs Dynamic range kit). The cAMP detection method is based on a competitive immunoassay, in which cAMP produced by the cells and cAMP labeled with the dye d2 compete for binding to a Europium-Cryptate-labeled anti-cAMP antibody. The specific HTRF signal is inversely proportional to the concentration of cAMP.
Compounds were added to individual well in 384 well-assay plates (Greiner #784076) using an Echo (LabCyte) dispenser from 10 mM stocks. Varying concentration of compounds were added to wells, and DMSO was used to normalize each well to a volume of 100 nL. A dose response curve of GLP-1(7-36)NH2 (Bachem H-6795) was included in each run. 5 μL of cAMP concentration response standards are applied in specified wells in the assay plates. Cryo-preserved cells are thawed and resuspended in assay buffer pre-heated to 37° C. (20 mM 2-[4-(2-hydroxyethyl)piperazin-1-yl]ethanesulfonic acid (HEPES) pH 7.4, 1× Hank's Balanced Salt Solution (HBSS, Life Technologies #14065) supplemented with 0.1% (w/v) bovine serum albumin (Sigma, A-7030)). Cells were centrifuged at 250*g for 5 min at rt, and resuspended in room tempered assay buffer to a final density of 0.16*10^6 cell/mL, to deliver 800 cells/well. 5 μL of assay buffer with 1 mM 3-isobutyl-1-methylxanthin (IBMX; Sigma cat I-7018) was dispensed per well in assay plates using a multidrop combi (Thermo Scientific) subsequently 5 μL of cell suspension was distributed to relevant wells in the assay using a multidrop dispenser. Assay plates were incubated 20 min at rt.
Detection reagents, Europium-Cryptate-labeled anti-cAMP antibody and cAMP labeled with the dye d2, are diluted in lysis buffer, provided by the manufacturer. 5 μL of each detection reagent is supplemented to each assay well using a multidrop dispenser. Assay plates are incubated in the dark for at least one h. The HTRF signal is measured using the HTRF module (excitation: 337 nm, emission A: 665 nm and emission B: 620 nm) in Pherastar FSX (BMG Labtech).
Raw data were converted to pM cAMP using the cAMP standard curve included in each run. Converted data were further analyzed in Genedata Screener (Genedata) and EC50 determinations were made from agonist dose-response curves analyzed with a curve fitting is program using a 4-parameter logistic dose response equation (Equation y=A+((B-A)/1+((C/x)^D))) where A is no stimulation, B is full stimulation, C is the EC50 and D is the Hill slope). The percent effect was determined relative to a saturating concentration of a full GLP-1R agonist (GLP-1(7-36)NH2 has 100% effect in this assay setup).

In experiment [1] the target is T2, GLP-1R in a pancreatic insulinoma cell line (EndoC-PH1) (Homo sapiens, UniProt P43220).
T2 construct: host or cells: EndoC-βH1 human pancreatic beta cell line
In words: EndoC cAMP Accumulation Assay (HTRF). Type of experiment: cell-based. Conditions: EndoC-PH1 human pancreatic beta cell line, endogenous GLP-1R, 30 min at rt. An excerpt: EndoC cAMP Accumulation Assay
A HTRF cAMP assay (cAMP Gs dynamic kit; CisoBio Cat #62AM4PEJ) was used to identify agonists of GLP-1R in a pancreatic insulinoma cell line (EndoC-PH1). […] EndoC-PHlcells have detectable GLP-1R messenger ribonucleic acid (mRNA) as detected by quantitative polymerase chain reaction (qPCR). […] The EndoC-PH1 cell line is a valid model of human beta cells and applicable for screenings to identify novel drug target candidates (Mol. Metab., 2018, 8, 144-157). CisBio HTRF cAMP kits are based on a competitive immunoassay using cryptate-labelled anti-cAMP antibody and d2-labeled cAMP. The detection kit is intended for the direct is quantitative determination of cAMP. The specific signal (i.e. energy transfer) is inversely proportional to the concentration of cAMP in the standard or sample. Test compounds (10 mM in DMSO) were diluted into assay buffer (HBSS (Sigma #H8264) supplemented with 25 mM HEPES (Gibco #15630, pH 7.4), 0.1% BSA (Sigma #A3059) and 0.5 mM IBMX (Sigma #I7018) included fresh on the day of the assay) into 96 well U-bottom plates (Greiner #650201). Diluted compounds were transferred to ECHO source polypropelene plates (Labcyte #P-05525) and dose response curves were dispensed acoustically using ECHO 550 into black shallow-well u-bottom 384-well HTRF Assay Plates (Corning 4514). Cryovials of EndoC-H1 (supplied at 1×10e^7 cells/vial) were used directly for screening. The cryovials and were removed from N2(1) and thawed rapidly in a 37° C. water bath. The cells were resuspended in assay buffer and centrifuged at 300 g for 5 min. Cells were resuspended in assay buffer at the appropriate concentration, typically at 12e5 cells per mL (3000 cells per well, dependent on cell batch) and 2.5 μL diluted cells were added to all wells of destination plate by Multidrop combi reagent dispenser (Thermofisher). The plates were incubated at rt for 30 min. The assay was stopped by adding 2.5 μL anti-cAMP cryptate solution to all wells and 2.5 μL cAMP-d2 solution (both diluted 1:20 in lysis buffer) to columns 1-22 by Combi drop. A volume of 2.5 μL cAMP-d2 solution was added to wells E23 to P24 and 2.5 μL lysis buffer added to wells A23 to D24 by multichannel pipette. The plates were incubated at rt for 1 h and read on an Envision plate reader using excitation wavelength of 320 nm and emission of […] and 660 nm.
Raw data from Envision is converted to % DeltaF according to the manufacturer's instructions. Dose response curves are analysed via 4-Parameter Logistical Analysis and assay plate Z’ values obtained. Samples are graphed as percentage (%) activation plots compared to […] with assay window defined by negative control as basal cell is cAMP levels and positive control are defined by maximum GIP (82.5 nM) signal. GLP-1 (7-36 amide, Bachem H-6795) dose response curve was included on all plates.

T2 sequence (P43220 24-463): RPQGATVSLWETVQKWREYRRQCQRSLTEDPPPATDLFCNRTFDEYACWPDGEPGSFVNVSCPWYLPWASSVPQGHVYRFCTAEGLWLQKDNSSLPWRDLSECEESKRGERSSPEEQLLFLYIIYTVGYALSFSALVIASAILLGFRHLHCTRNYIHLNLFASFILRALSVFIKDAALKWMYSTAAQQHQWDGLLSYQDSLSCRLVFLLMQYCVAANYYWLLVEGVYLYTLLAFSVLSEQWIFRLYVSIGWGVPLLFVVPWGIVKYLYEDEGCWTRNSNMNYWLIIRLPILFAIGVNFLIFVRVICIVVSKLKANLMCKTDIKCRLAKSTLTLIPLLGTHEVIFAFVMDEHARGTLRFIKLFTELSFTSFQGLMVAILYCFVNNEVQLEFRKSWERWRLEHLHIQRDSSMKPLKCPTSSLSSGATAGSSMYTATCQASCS
T1 sequence (P43220 24-463 L260F): as the sequence (P43220 24-463) above, with L237F counted along it

For the compound `C[C@]1(c2ccc(Cl)cn2)Oc2cccc(N3CCN(Cc4nc5c(Cl)cc(C(=O)O)cc5n4CC4(CC#N)CC4)[C@H]4CC[C@@H]43)c2O1` (single isomer, unassigned) [Example 26d], the pEC50 was 8.00 at human GLP-1R receptor and 8.15 in experiment [1].

Regarding `C[C@]1(c2ccc(Cl)cn2)Oc2cccc(N3CCN(Cc4nc5c(Cl)cc(C(=O)O)cc5n4CC4(CC#N)CC4)[C@H]4CC[C@@H]43)c2O1` (single isomer, unassigned) [Example 26b], the pEC50 is 8.82 at human GLP-1R receptor and 8.70 in experiment [1]. The matching figures for `C[C@]1(c2ccc(Cl)cn2)Oc2cccc(N3CCN(Cc4nc5c(Cl)cc(C(=O)O)cc5n4CC4(CC#N)CC4)[C@H]4CC[C@@H]43)c2O1` (single isomer, unassigned) [Example 26a]: 6.46 and 6.35. On the same counts, the results for `CCn1ccnc1Cn1c(CN2CCN(c3cccc4c3O[C@@](C)(c3ccc(Cl)cn3)O4)[C@H]3CC[C@@H]32)nc2c(Cl)cc(C(=O)O)cc21` (single isomer, unassigned) [Example 10c] are 6.62 and 6.00. On the same counts, the results for `C[C@]1(c2ccc(Cl)cc2F)Oc2cccc(N3CCN(Cc4nc5ccc(C(=O)O)cc5n4C[C@@H]4CCO4)[C@H]4CC[C@H]43)c2O1` (single isomer, unassigned) [Example 18a, 2-(((1R*,6S*)-5-((R*)-2-(4-Chloro-2-fluorophenyl)-2-methylbenzo[d][1,3]dioxol-4-yl)-2,5-diazabicyclo[4.2.0]octan-2-yl)methyl)-1-(((S)-oxetan-2-yl)methyl)-1H-benzo[d]imidazole-6-carboxylic acid] are 9.01 and 8.48. `COc1cc(C(=O)O)cc2c1nc(CN1CCN(c3cccc4c3O[C@@](C)(c3ccc(Cl)cn3)O4)[C@@H]3CC[C@@H]31)n2C[C@@H]1CCCO1` (single isomer, unassigned) [Example 8d]: the pEC50 at human GLP-1R receptor was 7.03; in experiment [1], 6.43.

For the compound `C[C@]1(c2ccc(Cl)cc2F)Oc2cccc(N3CCN(Cc4nc5c(F)cc(C(=O)O)cc5n4C[C@@H]4CCO4)[C@H]4CC[C@H]43)c2O1` (relative stereo) [Example 9d, 2-((1R*,6S*)-5-(R*)-2-(4-Chloro-2-fluorophenyl)-2-methylbenzo[d][1,3]dioxol-4-yl)-2,5-diazabicyclo[4.2.0]octan-2-yl)methyl)-4-fluoro-1-(((S)-oxetan-2-yl)methyl)-1H-benzo[d]imidazole-6-carboxylic acid], the pEC50 at human GLP-1R receptor was 8.64; in experiment [1] it was 8.37. `C[C@]1(c2ccc(Cl)cc2F)Oc2cccc(N3CCN(Cc4nc5ccc(C(=O)O)cc5n4C[C@@H]4CCO4)[C@H]4CC[C@H]43)c2O1` (single isomer, unassigned) [Example 18c]: the pEC50 at human GLP-1R receptor was 8.24; in experiment [1], 8.00. The matching figures for `C[C@]1(c2ccc(Cl)cn2)Oc2cccc(N3CCN(Cc4nc5c(Cl)cc(C(=O)O)cc5n4C[C@@H]4CCO4)[C@H]4CC[C@H]43)c2O1` (single isomer, unassigned) [Example 20c, 4-Chloro-2-(((1R*,6S*)-5-((R*)-2-(5-chloropyridin-2-yl)-2-methylbenzo[d][1,3]dioxol-4-yl)-2,5-diazabicyclo[4.2.0]octan-2-yl)methyl)-1-(((S)-oxetan-2-yl)methyl)-1H-benzo[d]imidazole-6-carboxylic acid]: 9.09 and 8.66.

As to `C[C@]1(c2ccc(Cl)cn2)Oc2cccc(N3CCN(Cc4nc5ccc(C(=O)O)cc5n4C[C@@H]4CCO4)[C@H]4CC[C@H]43)c2O1` (single isomer, unassigned) [Example 5c], the results for the negative logarithm of the EC50 (pEC50) (on human GLP-1R receptor; in experiment [1]) were 6.74 and 5.74, respectively. In turn, `C[C@]1(c2ccc(Cl)cn2)Oc2cccc(N3CCN(Cc4nc5c(Cl)cc(C(=O)O)cc5n4C[C@@H]4CCO4)[C@H]4CC[C@H]43)c2O1` (relative stereo) [Example 20a, 4-Chloro-2-(((1R*,6S*)-5-((R*)-2-(5-chloropyridin-2-yl)-2-methylbenzo[d1[1,3]dioxol-4-yl)-2,5-diazabicyclo[4.2.0]]octan-2-yl)methyl)-1-(((S)-oxetan-2-yl)methyl)-1H-benzo[d]imidazole-6-carboxylic acid] had a pEC50 on human GLP-1R receptor of 7.38. As to `C[C@]1(c2ccc(Cl)cn2)Oc2cccc(N3CCN(Cc4nc5c(F)cc(C(=O)O)cc5n4CC4(CC#N)CC4)[C@H]4CC[C@@H]43)c2O1` (single isomer, unassigned) [Example 23d], the pEC50 at human GLP-1R receptor is 7.96; in experiment [1], 8.12. The matching figures for `C[C@]1(c2ccc(Cl)cn2)Oc2cccc(N3CCN(Cc4nc5c(F)cc(C(=O)O)cc5n4CC4(CC#N)CC4)[C@H]4CC[C@@H]43)c2O1` (single isomer, unassigned) [Example 23a]: 8.96 and 8.55. At human GLP-1R receptor, `COc1cc(C(=O)O)cc2c1nc(CN1CCN(c3cccc4c3OC(C)(c3ccc(Cl)cn3)O4)[C@H]3CC[C@@H]31)n2CCOC1CC1(F)F` (mixture of isomers) [Example 13, rac-2-(((1R,6R)-5-(2-(5-Chloropyridin-2-yl)-2-methylbenzo[d][1,3]dioxol-4-yl)-2,5-diazabicyclo[4.2.0]octan-2-yl)methyl)-1-(2-(2,2-difluorocyclopropoxy)ethyl)-4-methoxy-1H-benzo[d]imidazole-6-carboxylic acid] had a pEC50 of 8.28.

For the compound `C[C@]1(c2ccc(Cl)cn2)Oc2cccc(N3CCN(Cc4nc5c(Cl)cc(C(=O)O)cc5n4C[C@@H]4CCO4)[C@H]4CC[C@H]43)c2O1` (single isomer, unassigned) [Example 20b, 4-Chloro-2-(((1R*,6S*)-5-((R*)-2-(5-chloropyridin-2-yl)-2-methylbenzo[d][1,3]dioxol-4-yl)-2,5-diazabicyclo[4.2.0]octan-2-yl)methyl)-1-(((S)-oxetan-2-yl)methyl)-1H-benzo[d]imidazole-6-carboxylic acid], the pEC50 at human GLP-1R receptor is 6.85.
